Experimental data: ChEMBL document CHEMBL5291721, “A preclinical secondary pharmacology resource illuminates target-adverse drug reaction associations of marketed drugs” (Nat Commun, 2023)

Assays:
[1] = target: Muscarinic acetylcholine receptor M3 (Homo sapiens, UniProt P20309)
[2] = target: 5-hydroxytryptamine receptor 2A (Homo sapiens, UniProt P28223); type: functional, cell-based
Histamine H1 receptor = Histamine H1 receptor (Homo sapiens, UniProt P35367)
[3] = target: T1, Gamma-aminobutyric acid receptor subunit alpha-1/alpha-2/beta-2/gamma-2 (Homo sapiens, UniProt P14867+P18507+P47869+P47870); type: functional, cell-based
Adenosine receptor A1 = target: T2, Adenosine receptor A1 (Homo sapiens, UniProt P30542)
T2 sequence (P30542 whole entry): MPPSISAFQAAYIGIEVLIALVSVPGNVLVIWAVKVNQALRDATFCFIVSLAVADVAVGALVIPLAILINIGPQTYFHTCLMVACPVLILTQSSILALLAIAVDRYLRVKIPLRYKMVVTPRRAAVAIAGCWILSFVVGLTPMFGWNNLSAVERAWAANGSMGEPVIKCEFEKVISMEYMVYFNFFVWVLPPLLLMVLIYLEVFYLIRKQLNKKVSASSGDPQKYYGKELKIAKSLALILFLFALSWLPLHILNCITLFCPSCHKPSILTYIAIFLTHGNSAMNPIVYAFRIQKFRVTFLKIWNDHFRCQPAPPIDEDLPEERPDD

[4] = target: T3, Alpha-1A adrenergic receptor (Homo sapiens, UniProt P35348)
T3 sequence (P35348 whole entry): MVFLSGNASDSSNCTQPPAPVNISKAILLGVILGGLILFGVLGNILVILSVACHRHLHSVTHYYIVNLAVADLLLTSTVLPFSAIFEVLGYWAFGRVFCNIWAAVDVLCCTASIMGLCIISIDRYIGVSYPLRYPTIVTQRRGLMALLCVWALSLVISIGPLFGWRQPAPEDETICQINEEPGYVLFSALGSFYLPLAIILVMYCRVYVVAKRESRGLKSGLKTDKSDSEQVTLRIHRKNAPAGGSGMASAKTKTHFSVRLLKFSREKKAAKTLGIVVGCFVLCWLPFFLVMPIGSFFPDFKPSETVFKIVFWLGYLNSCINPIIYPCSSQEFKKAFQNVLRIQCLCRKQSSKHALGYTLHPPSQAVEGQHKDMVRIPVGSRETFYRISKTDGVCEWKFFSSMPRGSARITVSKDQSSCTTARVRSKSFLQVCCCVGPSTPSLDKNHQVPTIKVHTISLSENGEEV

Melanocortin receptor 4 = Melanocortin receptor 4 (Homo sapiens, UniProt P32245)
[5] = target: Neurotensin receptor type 1 (Homo sapiens, UniProt P30989)
[6] = target: T4, Corticotropin-releasing factor receptor 1 (Homo sapiens, UniProt P34998)
T4 sequence (P34998 whole entry): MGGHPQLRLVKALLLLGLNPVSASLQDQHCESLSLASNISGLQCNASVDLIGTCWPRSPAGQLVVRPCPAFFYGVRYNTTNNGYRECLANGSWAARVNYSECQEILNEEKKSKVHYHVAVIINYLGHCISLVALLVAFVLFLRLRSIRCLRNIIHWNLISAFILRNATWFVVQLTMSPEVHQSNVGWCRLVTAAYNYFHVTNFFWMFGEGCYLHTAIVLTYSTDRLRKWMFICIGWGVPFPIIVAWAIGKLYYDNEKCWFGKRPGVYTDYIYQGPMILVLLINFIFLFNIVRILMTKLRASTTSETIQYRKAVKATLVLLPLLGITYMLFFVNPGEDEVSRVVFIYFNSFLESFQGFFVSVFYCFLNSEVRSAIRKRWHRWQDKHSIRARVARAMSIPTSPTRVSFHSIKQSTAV

Cannabinoid receptor 1 = Cannabinoid receptor 1 (Homo sapiens, UniProt P21554)
[7] = target: Voltage-dependent L-type calcium channel subunit alpha-1C (Rattus norvegicus, UniProt P22002); type: functional
Glucagon receptor = Glucagon receptor (Homo sapiens, UniProt P47871)
Glucocorticoid receptor = target: T5, Glucocorticoid receptor (Homo sapiens, UniProt P04150)
T5 sequence (P04150 whole entry): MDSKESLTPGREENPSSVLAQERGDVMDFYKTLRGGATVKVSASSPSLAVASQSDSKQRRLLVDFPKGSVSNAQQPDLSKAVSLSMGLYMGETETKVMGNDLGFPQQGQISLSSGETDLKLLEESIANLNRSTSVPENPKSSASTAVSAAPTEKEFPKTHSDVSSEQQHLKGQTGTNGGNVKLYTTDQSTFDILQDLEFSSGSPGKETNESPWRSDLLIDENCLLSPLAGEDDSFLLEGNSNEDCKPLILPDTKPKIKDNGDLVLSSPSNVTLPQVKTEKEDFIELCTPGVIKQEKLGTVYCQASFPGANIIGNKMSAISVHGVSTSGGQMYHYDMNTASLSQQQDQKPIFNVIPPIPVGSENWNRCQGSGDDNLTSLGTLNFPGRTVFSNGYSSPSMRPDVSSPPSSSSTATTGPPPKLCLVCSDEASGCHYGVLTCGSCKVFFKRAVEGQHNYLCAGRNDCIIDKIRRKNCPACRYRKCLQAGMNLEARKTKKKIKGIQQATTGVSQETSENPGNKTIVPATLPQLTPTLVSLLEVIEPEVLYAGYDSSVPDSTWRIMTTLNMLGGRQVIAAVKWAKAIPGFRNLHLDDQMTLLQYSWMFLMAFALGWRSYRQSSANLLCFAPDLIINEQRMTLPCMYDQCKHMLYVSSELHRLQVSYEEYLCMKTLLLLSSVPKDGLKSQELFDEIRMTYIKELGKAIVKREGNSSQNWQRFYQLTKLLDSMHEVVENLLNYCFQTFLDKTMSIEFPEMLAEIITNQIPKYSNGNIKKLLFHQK

[8] = target: T1, Gamma-aminobutyric acid receptor subunit alpha-1/alpha-2/beta-2/gamma-2; type: protein-complex assay
Also: assay procedure not described here.

Muscarinic acetylcholine receptor M3, sequence (P20309 whole entry): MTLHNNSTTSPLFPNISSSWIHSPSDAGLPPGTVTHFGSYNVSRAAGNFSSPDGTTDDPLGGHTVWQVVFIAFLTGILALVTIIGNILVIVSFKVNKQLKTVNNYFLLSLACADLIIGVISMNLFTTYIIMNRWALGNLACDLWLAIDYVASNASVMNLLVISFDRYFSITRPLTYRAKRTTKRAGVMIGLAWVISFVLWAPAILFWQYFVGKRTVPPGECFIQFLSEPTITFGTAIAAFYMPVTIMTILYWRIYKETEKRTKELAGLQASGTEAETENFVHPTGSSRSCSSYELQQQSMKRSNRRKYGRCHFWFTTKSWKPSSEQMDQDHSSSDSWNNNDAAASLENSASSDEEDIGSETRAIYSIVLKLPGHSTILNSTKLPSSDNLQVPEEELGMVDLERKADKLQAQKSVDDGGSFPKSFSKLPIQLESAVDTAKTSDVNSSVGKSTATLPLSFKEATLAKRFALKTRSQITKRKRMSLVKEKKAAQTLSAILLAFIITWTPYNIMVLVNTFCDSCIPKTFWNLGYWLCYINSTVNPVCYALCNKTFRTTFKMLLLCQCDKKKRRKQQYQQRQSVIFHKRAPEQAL
T1 sequence (P14867 whole entry): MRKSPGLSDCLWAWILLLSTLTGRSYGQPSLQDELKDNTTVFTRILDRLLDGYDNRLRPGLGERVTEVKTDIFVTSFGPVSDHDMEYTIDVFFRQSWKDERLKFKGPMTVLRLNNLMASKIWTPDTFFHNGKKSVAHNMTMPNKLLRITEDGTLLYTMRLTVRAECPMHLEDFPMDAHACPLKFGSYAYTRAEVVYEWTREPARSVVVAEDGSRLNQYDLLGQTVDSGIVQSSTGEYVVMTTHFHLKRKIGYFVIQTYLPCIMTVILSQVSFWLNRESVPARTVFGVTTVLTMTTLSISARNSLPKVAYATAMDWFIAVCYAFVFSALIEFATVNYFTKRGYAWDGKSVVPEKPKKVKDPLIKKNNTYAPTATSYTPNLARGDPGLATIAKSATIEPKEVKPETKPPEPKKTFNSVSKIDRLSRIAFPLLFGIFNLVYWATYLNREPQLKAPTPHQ
T1 sequence (P47870 whole entry): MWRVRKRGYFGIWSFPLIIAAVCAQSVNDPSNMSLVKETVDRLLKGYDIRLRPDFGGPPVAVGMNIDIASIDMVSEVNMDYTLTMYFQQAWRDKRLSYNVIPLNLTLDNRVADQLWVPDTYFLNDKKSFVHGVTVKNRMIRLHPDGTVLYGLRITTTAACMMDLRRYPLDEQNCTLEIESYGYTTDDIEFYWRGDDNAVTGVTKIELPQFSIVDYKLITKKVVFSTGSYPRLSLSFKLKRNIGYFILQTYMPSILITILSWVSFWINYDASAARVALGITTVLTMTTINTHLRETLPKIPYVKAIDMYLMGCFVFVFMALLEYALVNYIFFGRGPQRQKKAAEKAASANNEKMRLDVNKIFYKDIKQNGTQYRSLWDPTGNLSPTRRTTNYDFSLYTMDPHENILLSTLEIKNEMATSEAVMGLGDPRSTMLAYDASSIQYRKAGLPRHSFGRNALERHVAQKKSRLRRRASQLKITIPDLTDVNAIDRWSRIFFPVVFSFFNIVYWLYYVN
T1 sequence (P18507 whole entry): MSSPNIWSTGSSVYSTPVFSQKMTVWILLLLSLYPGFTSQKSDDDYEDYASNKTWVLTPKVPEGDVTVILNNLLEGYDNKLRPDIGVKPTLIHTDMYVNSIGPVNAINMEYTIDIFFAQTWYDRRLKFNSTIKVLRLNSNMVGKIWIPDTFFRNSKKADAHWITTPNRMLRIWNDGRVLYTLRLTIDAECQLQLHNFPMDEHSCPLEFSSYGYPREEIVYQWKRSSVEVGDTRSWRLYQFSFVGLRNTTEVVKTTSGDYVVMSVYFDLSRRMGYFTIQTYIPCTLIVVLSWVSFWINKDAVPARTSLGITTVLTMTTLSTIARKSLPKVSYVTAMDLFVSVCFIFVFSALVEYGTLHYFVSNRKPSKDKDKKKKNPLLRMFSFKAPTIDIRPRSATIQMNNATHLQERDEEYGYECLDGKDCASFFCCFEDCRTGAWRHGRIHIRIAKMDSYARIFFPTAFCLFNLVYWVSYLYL
T1 sequence (P47869 whole entry): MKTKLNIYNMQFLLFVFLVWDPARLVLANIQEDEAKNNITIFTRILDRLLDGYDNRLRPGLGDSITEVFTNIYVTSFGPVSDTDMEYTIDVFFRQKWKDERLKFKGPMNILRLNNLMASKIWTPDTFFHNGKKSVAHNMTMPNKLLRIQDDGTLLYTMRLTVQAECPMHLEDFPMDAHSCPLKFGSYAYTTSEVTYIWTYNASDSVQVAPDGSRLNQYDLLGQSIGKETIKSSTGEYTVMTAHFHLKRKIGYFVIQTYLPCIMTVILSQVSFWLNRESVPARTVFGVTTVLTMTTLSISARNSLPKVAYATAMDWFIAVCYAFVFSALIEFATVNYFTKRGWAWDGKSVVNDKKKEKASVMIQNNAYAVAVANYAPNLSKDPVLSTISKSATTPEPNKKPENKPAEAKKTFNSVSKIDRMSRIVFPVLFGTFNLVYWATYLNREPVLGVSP
Voltage-dependent L-type calcium channel subunit alpha-1C, sequence (P22002 whole entry): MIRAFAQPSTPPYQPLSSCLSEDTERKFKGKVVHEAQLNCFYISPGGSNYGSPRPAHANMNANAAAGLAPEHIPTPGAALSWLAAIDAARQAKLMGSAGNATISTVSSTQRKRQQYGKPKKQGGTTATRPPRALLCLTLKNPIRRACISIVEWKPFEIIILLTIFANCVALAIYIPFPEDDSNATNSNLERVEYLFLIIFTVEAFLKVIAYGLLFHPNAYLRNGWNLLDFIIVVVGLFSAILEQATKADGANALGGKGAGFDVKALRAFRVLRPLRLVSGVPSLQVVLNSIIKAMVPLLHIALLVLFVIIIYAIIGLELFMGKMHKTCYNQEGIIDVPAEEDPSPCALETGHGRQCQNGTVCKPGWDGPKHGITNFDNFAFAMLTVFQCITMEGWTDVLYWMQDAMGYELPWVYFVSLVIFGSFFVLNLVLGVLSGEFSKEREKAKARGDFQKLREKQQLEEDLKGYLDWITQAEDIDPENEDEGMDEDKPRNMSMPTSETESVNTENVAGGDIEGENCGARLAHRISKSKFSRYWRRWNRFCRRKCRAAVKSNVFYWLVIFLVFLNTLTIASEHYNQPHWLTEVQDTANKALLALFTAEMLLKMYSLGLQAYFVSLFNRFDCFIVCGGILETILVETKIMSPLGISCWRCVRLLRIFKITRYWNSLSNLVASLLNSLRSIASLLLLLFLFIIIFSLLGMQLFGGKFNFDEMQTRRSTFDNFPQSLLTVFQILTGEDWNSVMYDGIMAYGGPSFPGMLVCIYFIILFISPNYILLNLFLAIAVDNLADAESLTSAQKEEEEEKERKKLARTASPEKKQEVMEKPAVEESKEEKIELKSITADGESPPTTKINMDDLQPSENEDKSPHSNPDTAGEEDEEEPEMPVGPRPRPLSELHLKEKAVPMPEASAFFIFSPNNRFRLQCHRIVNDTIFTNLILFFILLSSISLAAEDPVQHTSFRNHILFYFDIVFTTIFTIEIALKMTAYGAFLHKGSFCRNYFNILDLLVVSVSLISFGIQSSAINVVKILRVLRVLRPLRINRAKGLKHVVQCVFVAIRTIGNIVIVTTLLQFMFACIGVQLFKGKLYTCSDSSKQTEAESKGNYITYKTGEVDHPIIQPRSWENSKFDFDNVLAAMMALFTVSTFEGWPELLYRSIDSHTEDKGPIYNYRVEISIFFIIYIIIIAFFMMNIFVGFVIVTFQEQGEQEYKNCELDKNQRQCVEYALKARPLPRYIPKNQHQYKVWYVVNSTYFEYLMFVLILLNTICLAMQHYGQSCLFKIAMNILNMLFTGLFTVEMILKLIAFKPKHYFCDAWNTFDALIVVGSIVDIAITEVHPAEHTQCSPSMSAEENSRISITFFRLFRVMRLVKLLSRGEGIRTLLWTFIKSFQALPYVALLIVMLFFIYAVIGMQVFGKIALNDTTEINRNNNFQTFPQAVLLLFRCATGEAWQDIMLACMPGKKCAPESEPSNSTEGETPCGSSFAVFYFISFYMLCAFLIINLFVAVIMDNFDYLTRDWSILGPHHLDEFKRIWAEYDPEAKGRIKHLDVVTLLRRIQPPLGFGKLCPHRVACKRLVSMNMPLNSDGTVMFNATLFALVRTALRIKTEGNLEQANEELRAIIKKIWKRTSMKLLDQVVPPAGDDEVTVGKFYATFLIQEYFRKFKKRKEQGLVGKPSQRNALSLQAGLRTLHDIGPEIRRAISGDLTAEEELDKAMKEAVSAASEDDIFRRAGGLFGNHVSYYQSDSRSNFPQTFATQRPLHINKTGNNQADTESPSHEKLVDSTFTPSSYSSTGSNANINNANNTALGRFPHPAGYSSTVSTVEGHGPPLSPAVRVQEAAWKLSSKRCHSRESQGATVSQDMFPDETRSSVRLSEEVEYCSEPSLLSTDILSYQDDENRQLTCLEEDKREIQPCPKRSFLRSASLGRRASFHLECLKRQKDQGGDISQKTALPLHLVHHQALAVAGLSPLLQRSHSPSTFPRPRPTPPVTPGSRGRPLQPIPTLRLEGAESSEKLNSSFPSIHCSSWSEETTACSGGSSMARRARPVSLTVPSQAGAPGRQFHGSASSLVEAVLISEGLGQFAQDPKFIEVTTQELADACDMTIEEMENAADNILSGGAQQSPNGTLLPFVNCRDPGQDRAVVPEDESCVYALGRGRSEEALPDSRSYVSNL
Melanocortin receptor 4, sequence (P32245 whole entry): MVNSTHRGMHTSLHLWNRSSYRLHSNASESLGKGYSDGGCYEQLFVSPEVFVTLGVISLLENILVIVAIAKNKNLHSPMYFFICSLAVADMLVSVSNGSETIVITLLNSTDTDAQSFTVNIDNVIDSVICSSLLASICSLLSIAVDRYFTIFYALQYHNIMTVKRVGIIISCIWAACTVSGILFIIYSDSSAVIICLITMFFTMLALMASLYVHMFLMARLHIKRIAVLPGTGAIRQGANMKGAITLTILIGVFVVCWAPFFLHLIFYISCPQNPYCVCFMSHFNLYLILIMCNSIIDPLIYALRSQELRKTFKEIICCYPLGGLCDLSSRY

| SMILES | AC50 [1] [µM] | AC50 [2] [µM] | AC50 (Histamine H1 receptor) [µM] | AC50 [3] [µM] | AC50 (Adenosine receptor A1) [µM] | AC50 [4] [µM] | AC50 (Melanocortin receptor 4) [µM] | AC50 [5] [µM] | AC50 [6] [µM] | AC50 (Cannabinoid receptor 1) [µM] | AC50 [7] [µM] | AC50 (Glucagon receptor) [µM] | AC50 (Glucocorticoid receptor) [µM] | AC50 [8] [µM] |
| --- | --- | --- | --- | --- | --- | --- | --- | --- | --- | --- | --- | --- | --- | --- |
| CC(C)NC(=N)NC(=N)Nc1ccc(Cl)c(Cl)c1 [CHLORPROGUANIL] | > 30 | 3.6 | > 30 | > 30 | > 30 |  |  |  |  |  |  |  |  |  |
| C[N+](C)(C)CCOP(=O)(O)OP(=O)([O-])OC[C@H]1O[C@@H](n2ccc(N)nc2=O)[C@H](O)[C@@H]1O [CITICOLINE] | > 30 | > 30 | > 30 | > 30 | > 30 |  |  |  |  |  |  |  |  |  |
| COc1cc(C(C)=O)ccc1OCCCN1CCC(c2noc3cc(F)ccc23)CC1 [ILOPERIDONE] | > 30 |  |  | > 30 | > 30 | 0.0018 |  |  |  |  |  |  |  |  |
| CC(CN1c2ccccc2Sc2ccccc21)N(C)C (stereo not drawn) [PROMETHAZINE] |  |  |  |  | > 30 | 0.162 | 25 | > 30 | > 30 | > 10 | > 10 | > 30 |  |  |
| O=C1Cc2cc(CCN3CCN(c4nsc5ccccc45)CC3)c(Cl)cc2N1 [ZIPRASIDONE] | > 10 |  |  |  | > 30 | 0.0317 | > 30 | > 30 | > 30 | > 10 | > 10 | > 30 | > 30 | > 30 |
